Data from patent US20070202487A1, “Assay for phospholipidosis” (Cytokinetics, Inc., A Delaware Corporation, priority 2006, published 2007).
pIC50: −log10 of the molar value. Where two headings read alike, the source gives them in different places.

Assays:
hepatocytes [1] = tested on: hepatocytes
Procedure: As described further below, in certain embodiments, the number of bright and/or punctate regions in the lysosomal marker image is used as an indication of phospholipidosis.
An exemplary procedure for preparing hepatocyte cultures will now be described. Specifically, the procedure involves the use of primary rat hepatocytes as follows:
11. Twenty three thousand cells/well are plated in a 96 flat well plate pre-coated with collagen I (BD Biosciences, San Jose, Calif. or CellzDirect, Tucson, Ariz.). The plates are incubated at 37° C./5% CO2 for two hours. At the end of the two hour incubation, plating medium is aspirated and cold Hepatozyme medium containing 250 micrograms/ml of Matrigel (BD Biosciences) is added, and the plates are incubated overnight.
The following example is a procedure for fixing and staining primary rat hepatocytes to visualize nuclei, lysotracker, and Alexa 647 nm succinimidyl ester reagent (A647SE). A647SE is used to segment individual hepatocytes within an image. • 1) At 24 hr after compound addition to cells, 50 ul of Hepatozyme medium (prewarmed to 37° C.) containing 187.5 nM of lysotracker dye is added to each well. Plates are placed back to incubator for 30 min, then 150 μl of fix solution (8% paraformaldehyde, in 1× PBS) and incubate at room temperature for 30 min. • 2) Aspirate the fix solution, and add 350 μl of wash buffer (1× PBS, 0.02% Triton X-100) to each well. Aspirate and dispense wash buffer 2 times. • 3) Aspirate off the wash buffer, and add 100 ul per well of A647SE mix: 0.5 μg/ml A647SE (stock 10 mg/ml) and 1:1000 dilution of Hoechst 33342 (stock 5 mg/ml) in wash buffer. Incubate at room temperature for one hour in the dark. • 4) Aspirate the staining solution, and add 350 μl of wash buffer (1× PBS, […]) to each well. Aspirate and dispense wash buffer 2 times. Leave the last wash buffer in the well. • 5) Seal the plate and store at room temperature in the dark prior to imaging.
In certain embodiments, a stimulus response curve may be generated for a stimulus of interest. In certain embodiments, the stimulus response curve plots the feature or features used to characterize phospholipidosis (e.g., granularity or mean intensity) against concentrations of a stimulus.

hepatocytes [2] = experiment: Cell death of hepatocytes treated with compound; assay type: cell-based; details: Rattus norvegicus, Hepatocyte, arrow in FIG. 5A

Compound | proportion of bright/punctate cells (LysoTracker images) (hepatocytes [1]; at several concentrations below EC50 of cell death, FIG. 2B, versus DMSO control) | induction of phospholipidosis as concluded from the response curves (hepatocytes [1]) | mean intensity of the LysoTracker marker (per-cell basis) versus concentration (hepatocytes [1]) | proportion of bright/punctate cells (LysoTracker images) (hepatocytes [1]) | total granularity versus concentration (hepatocytes [1]) | pIC50 (hepatocytes [2])
C[C@H](CCC(=O)NCCS(=O)(=O)O)[C@H]1CC[C@H]2[C@@H]3CC[C@@H]4C[C@H](O)CC[C@]4(C)[C@H]3CC[C@]12C [Taurolithocholate, taurolithocholate] | decrease |  |  |  |  | 
CN(C)CCCN1c2ccccc2Sc2ccc(Cl)cc21 [chlorpromazine] |  | induced phospholipidosis | increases | increase | spikes | 4.60
